Reference: the supplement of paper PMC10949913

What was measured:
Settings in all cases: 48 h
NCI-H295R [1] = experiment: AC50 viability; higher = less potent
Method in brief: (§1)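 In 1,536-well plates, 500–1,000 cells/well of three adrenocortical carcinoma cell lines in 5 µL medium received 23 nL of each library compound across 11 concentrations. At 48 h, CellTiter-Glo was incubated for 15 minutes at room temperature and luminescence measured. Per-plate normalisation used vehicle and empty-well controls, and only inhibitory or non-responding curve classes were kept when fitting concentration-response curves for AC50 and area under the curve.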

CU-ACC2 [2] = experiment: AC50 viability; higher = less potent
Method in brief: as §1

NCI-H295R [3] = experiment: area under concentration-response curve (viability) (AUC (a.u.)); higher = less active
Method in brief: as §1

CU-ACC2 [4] = experiment: as above
Method in brief: as §1

CU-ACC1 = experiment: as above
Method in brief: as §1

With `CNC(=O)c1nn(C)c2c1C(C)(C)Cc1cnc(Nc3ccc(N4CCN(C)CC4)cc3)nc1-2` as the molecule, how does the AC50 viability (NCI-H295R [1]) read?
The AC50 viability was 18.6 µM.

What about the AC50 viability (CU-ACC2 [2]) of the same molecule?
Its AC50 viability is 7.42 µM.

What about the “area under concentration-response curve” value (NCI-H295R [3]) of the same molecule?
The value was 473.

And the “area under concentration-response curve” value (CU-ACC2 [4])?
Its value is 483.

What does the source list for `CCn1cc(-c2ccnc3[nH]c(-c4cccc(CN(C)C)c4)cc23)c(-c2ccc(NC(=O)N(C)C)cc2)n1`?
AC50 viability (NCI-H295R [1]): 18.6 µM; AC50 viability (CU-ACC2 [2]): 18.6 µM; area under concentration-response curve (NCI-H295R [3]): 514; area under concentration-response curve (CU-ACC2 [4]): 578

`C[C@H]1CNC(=O)c2cnn3ccc(nc23)N[C@H](C)c2cc(F)ccc2O1` was tested. Which AC50 viability (NCI-H295R [1]) did it give?
Its AC50 viability is 2.35 µM.

What about the AC50 viability (CU-ACC2 [2]) of the same molecule?
Its AC50 viability is 6.61 µM.

What about the “area under concentration-response curve” value (CU-ACC1) of the same molecule?
Its value is 523.

And the “area under concentration-response curve” value (NCI-H295R [3])?
Its value is 454.

What about the “area under concentration-response curve” value (CU-ACC2 [4]) of the same molecule?
Its value is 475.

What does the source list for `Cc1cc(Nc2ncc(Cl)c(Nc3ccccc3[S+](=O)([O-])C(C)C)n2)c(OC(C)C)cc1C1CCNCC1`?
AC50 viability (NCI-H295R [1]): 5.9 µM; AC50 viability (CU-ACC2 [2]): 16.6 µM; area under concentration-response curve (CU-ACC1): 439; area under concentration-response curve (NCI-H295R [3]): 419; area under concentration-response curve (CU-ACC2 [4]): 495

Which AC50 viability (NCI-H295R [1]) does the source give for `O=C1c2ccccc2-[n+]2ccc3c([nH]c4ccccc43)c21` here?
The AC50 viability was 2.35 µM.

And the AC50 viability (CU-ACC2 [2])?
The AC50 viability was 2.35 µM.

What about the “area under concentration-response curve” value (CU-ACC1) of the same molecule?
The value was 379.

And the “area under concentration-response curve” value (NCI-H295R [3])?
The value was 374.

And the “area under concentration-response curve” value (CU-ACC2 [4])?
Its value is 381.

`CCC[C@@H](C=O)NC(=O)[C@H](CC(C)C)NC(=O)[C@H](CC(C)C)NC(=O)OCc1ccccc1` was tested. Which AC50 viability (NCI-H295R [1]) did it give?
Its AC50 viability is 1.18 µM.

And the AC50 viability (CU-ACC2 [2])?
Its AC50 viability is 1.48 µM.

And the “area under concentration-response curve” value (CU-ACC1)?
Its value is 417.

What about the “area under concentration-response curve” value (NCI-H295R [3]) of the same molecule?
Its value is 439.

What about the “area under concentration-response curve” value (CU-ACC2 [4]) of the same molecule?
Its value is 438.

For `C=C1C[C@@H]2CC[C@@]34C[C@H]5O[C@H]6[C@@H](O3)[C@H]3O[C@H](CC[C@@H]3O[C@H]6[C@H]5O4)CC(=O)C[C@@H]3[C@@H](OC)[C@@H](C[C@H](O)CN)O[C@H]3C[C@H]3O[C@@H](CC[C@@H]1O2)C[C@@H](C)C3=C`, which AC50 viability (NCI-H295R [1]) is on record?
The AC50 viability was 0.00959 µM.

And the AC50 viability (CU-ACC2 [2])?
Its AC50 viability is 3.4 µM.

And the “area under concentration-response curve” value (NCI-H295R [3])?
The value was 436.

What about the “area under concentration-response curve” value (CU-ACC2 [4]) of the same molecule?
The value was 461.

With `CC[P](CC)(CC)=[Au][S][C@@H]1O[C@H](COC(C)=O)[C@@H](OC(C)=O)[C@H](OC(C)=O)[C@H]1OC(C)=O` as the molecule, how does the AC50 viability (NCI-H295R [1]) read?
The AC50 viability was 2.09 µM.

What about the AC50 viability (CU-ACC2 [2]) of the same molecule?
The AC50 viability was 1.86 µM.

What about the “area under concentration-response curve” value (CU-ACC1) of the same molecule?
The value was 439.

What about the “area under concentration-response curve” value (NCI-H295R [3]) of the same molecule?
The value was 400.

What about the “area under concentration-response curve” value (CU-ACC2 [4]) of the same molecule?
The value was 445.

Which results are given for `CN(C)c1ccc2cc(C(=O)N[C@@H](CCCNC(=N)CCl)C(=O)NCc3ccccc3)ccc2c1`?
AC50 viability (NCI-H295R [1]): 11.8 µM; AC50 viability (CU-ACC2 [2]): 0.118 µM; area under concentration-response curve (NCI-H295R [3]): 247; area under concentration-response curve (CU-ACC2 [4]): 276

How did the AC50 viability (NCI-H295R [1]) turn out when `CN(C)C1=CC=C(C=C1)C(C2=CC=C(C=C2)N(C)C)=C/3\C=C/C(/C=C3)=[N+](C)C` was run?
The AC50 viability was 4.17 µM.

And the AC50 viability (CU-ACC2 [2])?
Its AC50 viability is 4.17 µM.

What does the source list for `FC(F)(F)c1ccc(Nc2nc(-c3c(C(F)(F)F)nc4ccccn34)cs2)cc1`?
AC50 viability (NCI-H295R [1]): 5.25 µM; AC50 viability (CU-ACC2 [2]): 20.9 µM; area under concentration-response curve (NCI-H295R [3]): 413; area under concentration-response curve (CU-ACC2 [4]): 529

Which results are given for `Cc1cc(C(=O)Nc2cc(Nc3ccc4c(/C=C/c5ccccn5)[nH]nc4c3)ccc2F)n(C)n1`?
AC50 viability (NCI-H295R [1]): 23.5 µM; AC50 viability (CU-ACC2 [2]): 23.5 µM; area under concentration-response curve (NCI-H295R [3]): 525; area under concentration-response curve (CU-ACC2 [4]): 572

How did the AC50 viability (NCI-H295R [1]) turn out when `O=C(Nc1cccc(Cl)c1)Nc1ncc(CCNc2ncnc3ccsc23)s1` was run?
Its AC50 viability is 33.2 µM.

And the AC50 viability (CU-ACC2 [2])?
The AC50 viability was 9.34 µM.

And the “area under concentration-response curve” value (NCI-H295R [3])?
Its value is 342.

What about the “area under concentration-response curve” value (CU-ACC2 [4]) of the same molecule?
Its value is 481.

For `CC1=N[NH]C=C1C2=CC\3=C(S2)C(=O)NC(=N3)\[C@@H]4CC5CCN4CC5`, which AC50 viability (NCI-H295R [1]) is on record?
The AC50 viability was 23.5 µM.

What about the AC50 viability (CU-ACC2 [2]) of the same molecule?
Its AC50 viability is 10.5 µM.

And the “area under concentration-response curve” value (NCI-H295R [3])?
Its value is 529.

What about the “area under concentration-response curve” value (CU-ACC2 [4]) of the same molecule?
Its value is 476.

Which results are given for `Nc1ncnc2c1c(-c1cccc(OCc3ccccc3)c1)cn2[C@H]1C[C@H](CN2CCCC2)C1`?
AC50 viability (NCI-H295R [1]): 18.6 µM; AC50 viability (CU-ACC2 [2]): 14.8 µM; area under concentration-response curve (NCI-H295R [3]): 358; area under concentration-response curve (CU-ACC2 [4]): 444

Which results are given for `c1ccc(-c2cc(CCC3CCNCC3)c3ccccc3n2)cc1`?
AC50 viability (NCI-H295R [1]): 20.9 µM; AC50 viability (CU-ACC2 [2]): 23.5 µM; area under concentration-response curve (NCI-H295R [3]): 469; area under concentration-response curve (CU-ACC2 [4]): 561

What does the source list for `C[N]1C=NC=C1[C@@](N)(C2=CC=C(Cl)C=C2)C3=CC=C4N(C)C(=O)\C=C(\C5=CC=CC(=C5)Cl)C4=C3`?
AC50 viability (NCI-H295R [1]): 0.00105 µM; AC50 viability (CU-ACC2 [2]): 0.372 µM; area under concentration-response curve (NCI-H295R [3]): 88.8; area under concentration-response curve (CU-ACC2 [4]): 94.9

What does the source list for `O=C(NCc1ccccc1)c1csc(Nc2ccncn2)n1`?
AC50 viability (NCI-H295R [1]): 23.5 µM; AC50 viability (CU-ACC2 [2]): 18.6 µM; area under concentration-response curve (NCI-H295R [3]): 482; area under concentration-response curve (CU-ACC2 [4]): 501

What does the source list for `COc1ccc(-c2c(-c3ccc(O)cc3O)n[nH]c2C)cc1`?
AC50 viability (NCI-H295R [1]): 0.00296 µM; AC50 viability (CU-ACC2 [2]): 0.105 µM; area under concentration-response curve (NCI-H295R [3]): 71.5; area under concentration-response curve (CU-ACC2 [4]): 224

`COC1=CC(=C2C(=O)N(COC/3=C/C(=O)N4\C=C/C=C(OCCN5CCCCC5)\C4=N3)[S+]([O-])(=O)C2=C1)C(C)C` was tested. Which AC50 viability (NCI-H295R [1]) did it give?
The AC50 viability was 37.2 µM.

And the AC50 viability (CU-ACC2 [2])?
The AC50 viability was 20.9 µM.

And the “area under concentration-response curve” value (NCI-H295R [3])?
Its value is 541.

What about the “area under concentration-response curve” value (CU-ACC2 [4]) of the same molecule?
Its value is 584.

What does the source list for `CC(C)Oc1cc(Nc2nc(N[C@@H](C)c3ccc(F)cn3)ncc2Cl)n[nH]1`?
AC50 viability (CU-ACC2 [2]): 1.32 µM; area under concentration-response curve (CU-ACC1): 325; area under concentration-response curve (NCI-H295R [3]): 353; area under concentration-response curve (CU-ACC2 [4]): 394

Which results are given for `CCOc1cc2ncc(C#N)c(Nc3ccc(OCc4ccccn4)c(Cl)c3)c2cc1NC(=O)/C=C/CN(C)C`?
AC50 viability (CU-ACC2 [2]): 16.6 µM; area under concentration-response curve (CU-ACC1): 562; area under concentration-response curve (NCI-H295R [3]): 543; area under concentration-response curve (CU-ACC2 [4]): 572

Which results are given for `COc1ccc(-c2cc3nccn3c(Nc3ncccc3C(N)=O)n2)cc1OC`?
AC50 viability (CU-ACC2 [2]): 6.61 µM; area under concentration-response curve (CU-ACC1): 436; area under concentration-response curve (NCI-H295R [3]): 427; area under concentration-response curve (CU-ACC2 [4]): 415

How did the AC50 viability (NCI-H295R [1]) turn out when `COc1cc2nc(-c3cc(F)ccc3O)nc(N[C@@H]3CNC[C@H]3C(C)(C)O)c2cc1OC` was run?
Its AC50 viability is 3.72 µM.

And the AC50 viability (CU-ACC2 [2])?
The AC50 viability was 4.17 µM.

And the “area under concentration-response curve” value (NCI-H295R [3])?
The value was 412.

What about the “area under concentration-response curve” value (CU-ACC2 [4]) of the same molecule?
The value was 430.
